Like-named read-outs stand apart in the source and are kept apart here.
Assay: Liquid dish neat product liquid-air partition coefficient
Type: physicochemical
Details: for Comment Code: Log of liquid dish neat product liquid-air partition coefficient: code letters K, L
[1] = class code letter within Comment Code

Row | SMILES | Log of liquid dish neat product liquid-air partition coefficient (Comment Code K/L) [1] | Comment Code: Log of liquid dish neat product liquid-air partition coefficient | Log of liquid dish neat product liquid-air partition coefficient (Comment Code K/L)
1 | C=C(C)C1CC=C(C)C(O)C1 (stereo not shown) [Material 531] | K (Log of liquid dish neat product liquid-air partition coefficient greater than or equal to −7) |  | 
2 | CC/C=C\CCOC(=O)C/C=C\CC [Material 534] | K (Log of liquid dish neat product liquid-air partition coefficient greater than or equal to −7) |  | 
3 | C/C=C(\C)C(=O)OCC/C=C\CC [Material 536] |  | K (Log of liquid dish neat product liquid-air partition coefficient greater than or equal to −7) | 
4 | CC/C=C\CCOC(=O)c1ccccc1 [Material 541] | K (Log of liquid dish neat product liquid-air partition coefficient greater than or equal to −7) |  | 
5 | CC/C=C\C/C=C\CCO [Material 546] | K (Log of liquid dish neat product liquid-air partition coefficient greater than or equal to −7) |  | 
6 | CCC(=O)OCC=Cc1ccccc1 [Material 548] | K (Log of liquid dish neat product liquid-air partition coefficient greater than or equal to −7) |  | 
7 | N#CC=Cc1ccccc1 [Material 549] |  | K (Log of liquid dish neat product liquid-air partition coefficient greater than or equal to −7) | 
8 | CC(C)C(=O)OCC=Cc1ccccc1 [Material 550] | K (Log of liquid dish neat product liquid-air partition coefficient greater than or equal to −7) |  | 
9 | O=COCC=Cc1ccccc1 [Material 551] | K (Log of liquid dish neat product liquid-air partition coefficient greater than or equal to −7) |  | 
10 | CC(=O)OCC=Cc1ccccc1 [Material 553] | K (Log of liquid dish neat product liquid-air partition coefficient greater than or equal to −7) |  | 
11 | O=C/C=C/c1ccccc1 [Material 554] |  | K (Log of liquid dish neat product liquid-air partition coefficient greater than or equal to −7) | 
12 | OCC=Cc1ccccc1 [Material 555] | K (Log of liquid dish neat product liquid-air partition coefficient greater than or equal to −7) |  | 
13 | N#C/C=C/c1ccccc1 [Material 556] |  | K (Log of liquid dish neat product liquid-air partition coefficient greater than or equal to −7) | 
14 | Cc1cc(O)cc(C)c1Cl [Material 557] |  | K (Log of liquid dish neat product liquid-air partition coefficient greater than or equal to −7) | 
15 | C=CCCC(=O)/C=C/C1C(C)=CCCC1(C)C (stereo not shown) [Material 559] | K (Log of liquid dish neat product liquid-air partition coefficient greater than or equal to −7) |  | 
16 | CC(=O)c1cc(C(C)(C)C)cc2c1CCC2(C)C [Material 563] |  |  | K (Log of liquid dish neat product liquid-air partition coefficient greater than or equal to −7)
17 | COC1(C)CCC23CC1C(C)(C)C2CCC3C (stereo not shown) [Material 565] |  | K (Log of liquid dish neat product liquid-air partition coefficient greater than or equal to −7) | K (Log of liquid dish neat product liquid-air partition coefficient greater than or equal to −7)

Row | SMILES | Log of liquid dish neat product liquid-air partition coefficient (Comment Code K/L) [1] | Comment Code: Log of liquid dish neat product liquid-air partition coefficient | Log of liquid dish neat product liquid-air partition coefficient (Comment Code K/L)
18 | CC1CCC2C(C)(C)C3CC12CCC3(C)OC=O (stereo not shown) [Material 566] |  | K (Log of liquid dish neat product liquid-air partition coefficient greater than or equal to −7) | K (Log of liquid dish neat product liquid-air partition coefficient greater than or equal to −7)
19 | CC(=O)O[C@]1(C)CC[C@@]23C[C@@H]1C(C)(C)[C@@H]2CC[C@H]3C [Material 567] |  | K (Log of liquid dish neat product liquid-air partition coefficient greater than or equal to −7) | K (Log of liquid dish neat product liquid-air partition coefficient greater than or equal to −7)
20 | C[C@@H]1CC[C@H]2C(C)(C)[C@H]3C[C@@]12CC[C@@]3(C)O [Material 569] |  | K (Log of liquid dish neat product liquid-air partition coefficient greater than or equal to −7) | K (Log of liquid dish neat product liquid-air partition coefficient greater than or equal to −7)
21 | CC1=CCC(C23CCCC(C)(C2)OC3)C1(C)C (stereo not shown) [Material 570] |  | K (Log of liquid dish neat product liquid-air partition coefficient greater than or equal to −7) | K (Log of liquid dish neat product liquid-air partition coefficient greater than or equal to −7)
22 | CC1C(C)(C)C2=C(C(=O)CCC2)C1(C)C (stereo not shown) [Material 572] |  |  | K (Log of liquid dish neat product liquid-air partition coefficient greater than or equal to −7)
23 | CC(=O)OC12CCCC(C)(CCC3C1CC3(C)C)C2 (stereo not shown) [Material 573] |  | K (Log of liquid dish neat product liquid-air partition coefficient greater than or equal to −7) | K (Log of liquid dish neat product liquid-air partition coefficient greater than or equal to −7)
24 | CC12CCCC(O)(C1)C1CC(C)(C)C1CC2 (stereo not shown) [Material 574] |  | K (Log of liquid dish neat product liquid-air partition coefficient greater than or equal to −7) | K (Log of liquid dish neat product liquid-air partition coefficient greater than or equal to −7)
25 | Cc1ccc(C(C)C)cc1O [Material 575] |  | K (Log of liquid dish neat product liquid-air partition coefficient greater than or equal to −7) | 
26 | C=C(C)C1CC=C(C)C(OC(C)=O)C1 (stereo not shown) [Material 577] |  |  | K (Log of liquid dish neat product liquid-air partition coefficient greater than or equal to −7)
27 | CCOCCOCCO [Material 579] |  | K (Log of liquid dish neat product liquid-air partition coefficient greater than or equal to −7) | 
28 | CCCCCCCCCC(=O)O [Material 582] |  |  | K (Log of liquid dish neat product liquid-air partition coefficient greater than or equal to −7)
29 | COc1ccc(CC(C)C=O)cc1 (stereo not shown) [Material 586] |  |  | K (Log of liquid dish neat product liquid-air partition coefficient greater than or equal to −7)
30 | CC12CCC(C(=O)C1=O)C2(C)C (stereo not shown) [Material 587] |  |  | K (Log of liquid dish neat product liquid-air partition coefficient greater than or equal to −7)
31 | CCCCOC(=O)C(C)OC(=O)CCC (stereo not shown) [Material 595] |  |  | K (Log of liquid dish neat product liquid-air partition coefficient greater than or equal to −7)
32 | C=CCCCCCCCCC(=O)OCCCC [Material 599] |  |  | K (Log of liquid dish neat product liquid-air partition coefficient greater than or equal to −7)
33 | CC1=CCC(CCC(C)CO)C1(C)C (stereo not shown) [Material 600] |  |  | K (Log of liquid dish neat product liquid-air partition coefficient greater than or equal to −7)
